These results are taken from US20100184638A1, “Galanin Receptors and Brain Injury” (NeuroTargets, Ltd., priority 2004, published 2010).

One assay deals with GALR1 and GALR2. To be noted: cited from earlier work.
In assay [1] the test system is organotypic hippocampal cultures. Kind of assay: Staurosporine-induced cell death in organotypic hippocampal cultures (propidium iodide). Type of assay: cell-based, mouse. To be noted: for percentage cell death: n=4. As to the method:
Organotypic cultures were prepared as previously described (Elliott-Hunt et al. (2002) J. Neurochem. 80 416-425; Stoppini et al. (1991) J. Neurosci. Methods 37 173-182). Briefly, the hippocampi from 5-6 day old pups were rapidly removed under a dissection microscope and sectioned transversely at 400 μm using a McIlwain tissue chopper (Mickle Laboratory Engineering Co. Ltd., Gomshall, UK). The slices were cultured in 95% air and 5% CO2 at 37° C. on a microporous transmembrane biopore membrane (Millipore, Poole, UK), in a 6-well plate, in 50% minimal essential medium with Earle's Salts (Gibco BRL, Paisley, UK) without L-glutamine, […] Hanks Balanced Salt Solution (Gibco BRL), 25% Horse Serum (heat inactivated; Harlan Serum Labs, Loughborough, UK), 5 mg/ml glucose (Sigma Chemical Co., Poole, UK) and […] glutamine (Sigma).
Fourteen day organotypic hippocampal cultures were placed in 0.1% BSA with serum free media for 16 hours before incubation with varying concentrations of glutamic acid for 3 hours or staurosporine for 9 hours. Staurosporine and glutamate are both known to cause excitotoxic damage to such cell cultures (Prehn et al. (1997) J. Neurochem. 68 1679-1685; Ohmori et al. (1996) Brain Res. 743 109-115). Cultures were washed with serum-free medium and incubated for a further 24 hours before imaging. Regional patterns of neuronal injury in the organotypic cultures were observed by performing experiments in the presence of propidium iodide. After membrane injury, the dye enters cells, binds to nucleic acids and accumulates, rendering the cell brightly fluorescent (Vornov et al. (1994) Stroke 25 457-465). […] Neuronal damage in the area encompassing the CA1 region was assessed using the density slice function in NIH Image software (Scion Image, MD, USA) to establish signal above background. The area of the subfields expressing the exclusion dye propidium iodide was measured, and expressed as a percentage of the total area of the subfields as assessed in the bright field image. Furthermore, for consistency in setting the parameters accurately when using the density slice function, the threshold was set against a positive control set of cultures exposed to 10 mM glutamate.
(SEQ ID NO: 1) (AstraZeneca, Montreal, Quebec, Canada), amyloid-β (1-42) (Aβ (1-42)) and the reverse Aβ (42-1) peptide (American Peptide Company, Sunnyvale, Calif. 93906). Before use in the experiments below, the Aβ (1-42) was induced to form fibrils by pre-incubation in culture medium. Specifically, 0.45 mg of Aβ peptide was dissolved in 20 μl of dimethyl sulfoxide (DMSO-Sigma) and diluted to a 100-μM stock solution in medium, which was then incubated with gentle shaking at room temperature for 24 hours.
To further dissect the neuroprotective role played by galanin in a more tractable in vitro system, both primary dispersed and organotypic hippocampal cultures (Elliott-Hunt, 2002) were used. These two techniques are complimentary since the dispersed hippocampal cultures ensure that observed effects are neuron-specific, whilst the organotypic cultures preserve the synaptic and anatomical organisation of the neuronal circuitry (Elliott-Hunt, 2002) as well as retaining many of the functional characteristics found in vivo (Adamschik et al. (2000) Brain Res. Prot. 5 153-158). The effects of staurosporine and glutamate on neuronal cell death in hippocampal cultures (Prehn, 1997; Ohmori, 1996) were studied. Cell death was visualised by propidium iodide staining. Results are expressed as a percentage of the area expressing fluorescence as compared with the untreated “control” cultures.

Assay [2] has the same test system. Kind of assay: Glutamate-induced cell death in organotypic hippocampal cultures (propidium iodide). Format: cell-based, mouse. To be noted: 4 mM glutamate, 9 hour exposure, n=4. As to the method: Organotypic cultures were prepared as previously described (Elliott-Hunt et al. (2002) J. Neurochem. 80 416-425; Stoppini et al. (1991) J. Neurosci. Methods 37 173-182). Briefly, the hippocampi from 5-6 day old pups were rapidly removed under a dissection microscope and sectioned transversely at 400 μm using a McIlwain tissue chopper (Mickle Laboratory Engineering Co. Ltd., Gomshall, UK). […]
Staurosporine and glutamate are both known to cause excitotoxic damage to such cell cultures (Prehn et al. (1997) J. Neurochem. 68 1679-1685; Ohmori et al. (1996) Brain Res. 743 109-115). […] Neuronal damage in the area encompassing the CA1 region was assessed using the density slice function in NIH Image software (Scion Image, MD, USA) to establish signal above background. The area of the subfields expressing the exclusion dye propidium iodide was measured, and expressed as a percentage of the total area of the subfields as assessed in the bright field image. […]
To further dissect the neuroprotective role played by galanin in a more tractable in vitro system, both primary dispersed and organotypic hippocampal cultures (Elliott-Hunt, 2002) were used. […] Results are expressed as a percentage of the area expressing fluorescence as compared with the untreated “control” cultures.

In another assay the test system is GALR2. To be noted: cited from earlier work.

Non-standard residues stand in square brackets, D forms with d. Residues, ends and D or L forms follow the SMILES beside them. *: point of attachment. Fmoc = O=C(OCC1c2ccccc2-c2ccccc21)*; Cha = N[C@@H](CC1CCCCC1)C(=O)O; AMC = Cc1cc(=O)oc2cc(N*)ccc12

In the case of `Cc1cc(=O)oc2cc(NC(=O)[C@H](CCCCN)NC(=O)[C@H](CC3CCCCC3)NC(=O)OCC3c4ccccc4-c4ccccc43)ccc12` [Galnon] (Fmoc-[Cha]-Lys-{AMC}), in the assay with GALR1 and GALR2, the “activation of other GPCR receptors including the neurotensin receptor” value is reported as “also activates a number of other GPCR receptors”; the “agonistic activity at GALR1 and GALR2” value is “equally activates and has agonistic activity to both GALR1 and GALR2”.

Take `CN[C@@H]1C[C@H]2O[C@@](C)([C@@H]1OC)n1c3ccccc3c3c4c(c5c6ccccc6n2c5c31)C(=O)NC4` [Staurosporine, staurosporine]: the percentage cell death is recorded as 65±10% in assay [1] (100 nM staurosporine, galanin knockout organotypic cultures); 40±26% in assay [1] (100 nM staurosporine, wild-type organotypic cultures); 68±0.5% in assay [1] (1 μM staurosporine, galanin knockout organotypic cultures); 38±8% in assay [1] (1 μM staurosporine, wild-type organotypic cultures).

On to `N[C@@H](CCC(=O)O)C(=O)O` [glutamate, L-glutamic acid], for which the percentage cell death turned out to be 85±8.6% in assay [2] (galanin knockout organotypic cultures) and 61±9.3% in assay [2] (wild-type organotypic cultures).

As for WTLNSAGYLL [AR-M1896], the cell death entry in assay [1] (100 nM AR-M1896 co-administered with 100 nM staurosporine, wild-type organotypic cultures, p<0.05) is “significantly reduced the amount of cell death”. Moreover, in assay [1] (galanin knockout organotypic cultures versus wild-type cultures (data not shown)), the “reduction of staurosporine-induced cell death” value is reported as “as effective”. Further, in assay [1] (organotypic or primary cultures, no staurosporine), the “effect in the absence of staurosporine” value is “No significant effects”. Further, in the assay on GALR2, the “binding specificity for GALR2 compared to GALR1” value is reported as 500 fold.
